In patent publication US11591288B2, “Compositions and methods for treating atherosclerotic cardiovascular disease” (GAVISH-GALILEE BIO APPLICATIONS LTD., priority 2017, dated 2023):

What was measured:
[1] = test system: HDL isolated from Balb/c mice; test: Pro-/anti-inflammatory properties of HDL isolated from HFD fed Balb/c mice, cell free assay; type: in vivo; conditions: HDL from HFD mice given lyso-DGTS 1.43 mg/ml, 3.5 μl a day, 28 days; fluorescence without HDL = 1.0; p<0.05
Method: Balb/c mice fed with normal rodent diet (the “non” group; n=11) or HFD received treatment administered via subcutaneously implanted osmotic mini-pumps: 1) vehicle group injected with DDW+2% Tween 80 (n=9); 2) lyso-DGTS group injected with lyso-DGTS (1.43 mg/ml in DDW+2% Tween 80; n=1). At the end of the protocol, serum was obtained, HDL was isolated, and its pro-inflammatory/anti-inflammatory properties were determined using cell free assay (CFA). Fluorescence in the absence of HDL was normalized to 1.0. Values>1.0, after addition of the tested HDL, indicated pro-inflammatory activity; and values<1.0 indicated anti-inflammatory activity. (*p<0.05).
In order to examine the effect of lyso-DGTS on HDL-anti-inflammatory effects in-vivo, 3.5 μl lyso-DGTS a day were administered for 28 days, via a subcutaneously implanted osmotic mini-pump, to HFD fed mice. As described in Example 12, the mice were divided into three groups: 1) mice fed with regular diet for 12 weeks (the “non” group; […]); 2) mice fed with HFD for 12 weeks and injected with lyso-DGTS (1.43 mg/ml in DDW+2% Tween) from week 9 (the lyso-DGTS group; n=1); and 3) mice fed with HFD for 12 weeks and injected with DDW+2% Tween (the vehicle group; n=9).

HDL = test: HDL-lyso-DGTS interaction, Trp fluorescence quenching; type: binding, human
Method: FIGS. 10A-10B show tryptophan fluorescence spectra of HDL (0.03 mg/ml) incubated with/without lyso-DGTS at various concentrations (1, 5, 10, 25, 50, 75, and 100 μg/ml) in black 96-well plates for 4 h at 37° C. (10A) or 25° C. (10B). The fluorescence was measured at excitation/emission 290/320-340 nm. The ability of lyso-DGTS to elevate HDL activity correlates with its binding affinity to HDL. Each experiment repeated separately at least three times.
HDL and LDL were isolated from human plasma samples by discontinuous density gradient ultracentrifugation and dialyzed against saline containing sodium ethylenediaminetetraacetic acid (EDTA; 1 mmol/L) to protect the lipoproteins against oxidation. Before generating the experiments, LDL and HDL were dialyzed twice, for 1 h each time, and once more overnight against PBS at 4° C. to remove EDTA.
In order to test whether the protective effect of lyso-DGTS on HDL occurs via specific interaction between lyso-DGTS and the lipoprotein, the HDL-lyso-DGTS interaction was investigated by the Trp-fluorescence-quenching method. […] (FIG. 10A) and 25° C. (FIG. 10B) in the 300-450 nm range with an excitation wavelength of 290 nm. Lyso-DGTS quenched HDL fluorescence in a dose-dependent manner at both temperatures.
Quenching pathways can be described by the Stem-Volmer equation (eq. 1 above). The Stern-Volmer curve was linear at the tested concentration of lyso-DGTS at both temperatures (with R>0.99 and p<0.0001). The Ksv values were (5.59±0.42)×10^3 M^−1 at 37° C. (FIG. 11A) and (4.83±0.59)×10^3 M^−1 at 25° C.
The binding constant and binding sites were calculated as shown for rePON1, using eq. 2 above. […] (FIG. 11D). The values obtained for n were not affected by temperature and were equal to 1 (Table 5). The thermodynamic parameters: enthalpy (ΔH), entropy (ΔS), and free energy (ΔG) were calculated to characterize the HDL-lyso-DGTS interaction type.

human serum PON1 = molecular target: T1, human serum PON1 (Homo sapiens, UniProt P27169); test: Human serum PON1 lactonase activity (dihydrocoumarin assay); type: biochemical; conditions: 4 h, 37° C., 1.8 units without lyso-DGTS
T1 construct: tissue Industries biologic (Bet-Haemk, Israel); host or cells: human serum
T1 sequence (P27169 whole entry): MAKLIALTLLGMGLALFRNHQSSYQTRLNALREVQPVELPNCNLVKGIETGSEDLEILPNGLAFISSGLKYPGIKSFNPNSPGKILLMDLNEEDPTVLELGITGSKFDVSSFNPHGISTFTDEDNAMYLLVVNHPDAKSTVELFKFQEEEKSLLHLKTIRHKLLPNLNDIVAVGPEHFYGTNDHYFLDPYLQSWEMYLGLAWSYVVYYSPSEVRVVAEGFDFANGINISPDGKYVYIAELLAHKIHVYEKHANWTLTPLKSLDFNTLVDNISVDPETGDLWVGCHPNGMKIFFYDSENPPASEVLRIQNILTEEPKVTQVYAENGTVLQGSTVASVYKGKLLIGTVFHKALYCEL
Method: 200 μl of human serum diluted by 20 with phosphate-buffered saline (PBS) (PH=7.6) was incubated with lyso-DGTS at various concentrations (0, 1, 5, 10 and 50 μg/ml) for 4 h at 37° C. Then, 10 μl was taken to measure lactonase activity using the dihydrocoumarine assay.
The effect of lyso-DGTS on lactonase activity of human serum PON1 was examined. Human serum was diluted by 20 with PBS buffer and incubated with and without lyso-DGTS at concentrations of 1, 5, 10, and 50 μg/ml for 4 h at 37° C. Lactonase activity of the enzyme was measured using dihydrocoumarin assay. As shown in Example 1, lyso-DGTS increased human serum lactonase activity in a dose dependent manner up to 10 μg/ml, from 1.8 units without lyso-DGTS to 2.16, 2.82, 3.01, and 2.80 units at 1, 5, 10 and 50 μg/ml lyso-DGTS, respectively. The change at 1 μg/ml of lyso-DGTS was not statistically significant (FIG. 2).

J774A.1 macrophages = test: Ox-LDL-induced foam cell formation, Oil Red O staining; type: cell-based, murine
Method: J774A.1 macrophage cells were grown in RPMI 1640 media containing 10% FBS in cell culture flask till ˜90% confluence (37° C. incubator containing 5% CO2). The cells were incubated at 37° C. overnight under sterile conditions, approximately 1×10^5 J774.1 cells/well in a 96-well plate. Macrophage cells were incubated for an additional 24 h with lyso-DGTS (50 and 100 μg/ml), rePON1 (50 μg/ml), or rePON1 preincubated with different concentrations of lyso-DGTS (10, 20, 50 and 100 μg/ml). The cells were washed and ox-LDL (25 μg/ml in a RPMI medium) was added for another 24 h to yield foam cells. The cells were washed 3 times with PBS, following fixation with 4% formaldehyde for 10 min, the cells were stained with Oil Red O (0.35 mg/100 ml in 60% isopropanol; Sigma-Aldrich) for 15 min at 37° C. to evaluate the characteristic lipid accumulation in macrophage-derived foam cells. Foam cell formation was observed under microscope.
The density of lipid content was evaluated by alcohol extraction after staining. The absorbance at 514 nm was measured using microplate reader (Infinite M200 PRO fluorescence spectrophotometer (Tecan)).
Macrophages uptake of ox-LDL, forming foam cell, is the hallmark of atherogenesis. The ability of lyso-DGTS or rePON1 incubated with lyso-DGTS to attenuate foam cell formation was examined. […]

With `CC/C=C\C/C=C\C/C=C\C/C=C\C/C=C\CCCC(=O)OCC(O)COCCC(C(=O)[O-])[N+](C)(C)C` (centres unmarked) [lyso-DGTS, lyso-diacylglyceryltrimethylhornmoserine] the HDL inflammatory value [1] was less than 1, the “Stern-Volmer quenching constant Ksv, HDL” value (HDL; 25° C.) was “(4.83±0.59)×10^3 M^−1” and the “Stern-Volmer quenching constant Ksv, HDL” value (HDL; 37° C.) was “(5.59±0.42)×10^3 M^−1”. The “Binding constant Ka, lyso-DGTS-HDL” value (HDL; 298 K (25° C.)) was 3780 M⁻¹, the “Binding constant Ka, lyso-DGTS-HDL” value (HDL; 310 K (37° C.)) was 21650 M⁻¹ and the “human serum PON1 lactonase activity” value (human serum PON1; 1 μg/ml lyso-DGTS, change not statistically significant) was 2.16 units. For the same compound, the “human serum PON1 lactonase activity” value (human serum PON1; 5 μg/ml lyso-DGTS) was 2.82 units, the “human serum PON1 lactonase activity” value (human serum PON1; 10 μg/ml lyso-DGTS) was 3.01 units and the “human serum PON1 lactonase activity” value (human serum PON1; 50 μg/ml lyso-DGTS) was 2.80 units. The “enhancement of rePON1 ability to inhibit foam cell formation” value (J774A.1 macrophages; 100 μg/ml lyso-DGTS vs rePON1 alone, not significant) was roughly 10% and the “reduction of oil red staining intensity” value (J774A.1 macrophages; lyso-DGTS (50 μg/ml) alone, then ox-LDL 25 μg/ml 24 h) was 32%.
